Data reported in patent US11446254B2, “Drug carrier having self-assembled 3-D nucleic acid nanostructure” (KOREA INSTITUTE OF SCIENCE AND TECHNOLOGY, priority 2014, dated 2022).

System: SCC7 cells
Type: in vivo
Details: 18 days therapy
Procedure: A balb/c nude mouse (5 weeks old, male) was used as an experimental animal group, and a tumor was formed by subcutaneously inoculating SCC7 cells (1.0×10^6 cells suspended in the culture medium) into the left thigh of the mouse. When the tumor volume became approximately 50 mm^3, the tumor was used for the experiment.
For the selective therapy of cancer tissue, DOX was each loaded into L-Td55 and L-Td92, which are a carrier having cancer tissue selectivity.
The therapy experiment was performed by classifying the mice into total six groups (PBS, L-Td55, L-Td92, free DOX, DOX@L-Td55, and DOX@L-Td92), and 7 mice per group were used. Before the therapy was performed each time, the tumor volume and the mouse body weight were measured. In this case, the tumor volume was calculated by a method of (minor axis^2*major axis)/2. Each sample was injected into the caudal vein of the mice completely subjected to measurement (see Slide #2 for concentration), the therapy was performed once every three days, and the therapy was performed total 6 times.

## COc1cccc2c1C(=O)c1c(O)c3c(c(O)c1C2=O)C[C@@](O)(C(=O)CO)C[C@@H]3O[C@H]1C[C@H](N)[C@H](O)[C@H](C)O1 [free DOX, doxorubicin]
  Therapeutic effect: slight therapeutic effects
